Data: patent US5281710A, “Dynemicin analogs: synthesis, methods of preparation and use” (The Scripps Research Institute, priority 1992, dated 1994)
“Also recorded” adds a separate entry of the source. Read-outs that look alike come from different tables or passages of the source.

Columns and labels:
cancer cell lines = test: cells; format: cell-based; conditions: for cytotoxicity (qualitative): cancer cell lines
Procedure: (§1) In addition to the screening already discussed, several of the before-described compounds and chimeras were screened against several or all of a panel of ten to twenty-five cancerous cell lines as target cells and seven "normal" cell preparations. This screening utilized a sulforhodamine B cytotoxidity assay as discussed below.
SULFORHODAMINE B CYTOTOXICITY ASSAY
a. Stock drug solutions were prepared by dissolving drug in the appropriate solvent (determined during chemical characterization studies) and sterile filtering the drug-solvent solution through a sterile 0.2μ filter unit. An aliquot was taken from each filtered drug solution and the O.D. was measured to determine the drug concentration.
f. Incubate (37° C., 5-10 percent CO2 in humidified incubator) plates for a total of 72 hours. Check plates at 24 hour intervals microscopically for signs of cytotoxicity.
(§2) IC50 values; i.e., the concentration of Compound required to kill one-half of the treated cells, were then calculated.
All other cells or cell lines were obtained from the American Type Culture Collection (ATCC) (all except CHO cells are human or mouse cancer cell lines as described by the ATC).
Tables 1 and 2 herein below provide average IC50 data from five to all ten of the above cancer cells lines for fused ring enediyne compounds disclosed herein. Those tables provide a generic structure and a description of the R group of that generic structure for each compound. Compound numbers as noted hereinbefore are also provided. Table 3 contains data for two fused-ring enediyne compounds (Compounds 47 and 120) as well as data for six chimers. Table 4 contains cancer cell and noraml cell cytotoxicity data for one select fused ring enediyne, Compound 153 against a number of "normal" cell preparations and tumor cell lines. Table 5 contains cancer cell and normal cell cytotoxicity data for another fused ring enediyne, Compound 250 against a similar panel of cells.

φX174 Form I DNA = test: φX174 supercoiled DNA cleavage, agarose gel; format: biochemical
Procedure: The ethereal solution of Compound 40 produced by the LiAlH4 reduction of Compound 21 (39 mg, 0.10 mmol) was evaporated in vacuo to dryness and the residue dissolved in THF (4 mL) to give a 25 mM solution of Compound 40, assuming complete conversion of Compound 21. […]
Thus, a vial containing a 50 micromolar per base pair solution […] of the same buffer solution and 2.0 microliters of a 5.0 millimolar ethanol solution of Compound 40.
[…] A 2.0 microliter portion of glycerol loading buffer solution containing bromothymol blue indicator was added to each vial. A 10 microliter aliquot was then drawn from each. Gel electrophoresis analysis of the aliquots was performed using a 1.0 percent agarose gel with ethidium bromide run at 115 volts for 1 hour. DNA cleavage was indicated by the formation of nicked relaxed circular DNA (form II) or linearized DNA (form III), which was detected by visual inspection of the gel under 310 nanometer ultraviolet light using ethidium bromide.

Chemical stability = format: physicochemical
[1] = system: MOLT-4 (Leukemia) cell line; test: cells; format: cell-based; conditions: for potency against Molt-4 relative to the other cell lines: Molt-4 vs average of other cell lines; for IC50: read-out: IC50
Procedure: as §1, §2

[2] = Average data obtained from 5~10 cell lines, read-out: IC50 (average)
[3] = 5.0 mM, pH 8.5, 36 hours, 37° C.

Molecule O=C(OCCSc1ccccc1)N1c2ccccc2[C@@]23O[C@]24CCC[C@H]3C#C/C=C\C#C[C@H]14 (relative stereo) [Compound 21a] has an IC50 (cancer cell lines; [2]) of 63 µM.

O=C(OCC[S+]([O-])c1ccccc1)N1c2ccccc2[C@@]23O[C@]24CCC[C@H]3C#C/C=C\C#C[C@H]14 (relative stereo) [Compound 21b] gave an IC50 (cancer cell lines; [2]) of 32 µM.

Work on COc1ccc2c(c1)[C@@]13O[C@]14CCC[C@H]3C#C/C=C\C#C[C@@H]4N2C(=O)Oc1ccccc1 (relative stereo) [Compound 41a] yielded an IC50 (cancer cell lines; [2]) of 20 µM.

Molecule CO[C@]12C#C/C=C\C#C[C@@H]3N(C(=O)Oc4ccccc4)c4ccccc4[C@]14O[C@@]34CCC2 (relative stereo) [Compound 46] has an IC50 (cancer cell lines; [2]) of 63 µM.

In the case of O=C(OCCS(=O)(=O)c1ccccc1)N1c2ccccc2[C@@]23O[C@]24CCC[C@H]3C#Cc2ccccc2C#C[C@H]14 (relative stereo) [Compound 70], the IC50 (cancer cell lines; [2]) is reported as 3.2 µM, the “cytotoxicity (qualitative)” value (cancer cell lines) is reported as “potent anticancer activity against a variety of cell lines” and the DNA cleavage (φX174 Form I DNA; basic conditions, pH 9.0) is reported as “exhibited DNA cleaving properties”.

With O=C(Oc1ccccc1)N1c2ccccc2[C@@]23O[C@]24CCC[C@@]3(O)C#Cc2ccccc2C#C[C@H]14 (relative stereo) [Compound 74] the IC50 (cancer cell lines; [2]) was 20 µM.

With O=C(OCCSc1ccccc1)N1c2ccccc2[C@@]23O[C@]24CCC[C@H]3C#Cc2ccccc2C#C[C@H]14 (relative stereo) [Compound 77] the IC50 (cancer cell lines; [2]) was 36 µM.

In the case of O=C(OCCS(=O)(=O)c1ccccc1)N1c2ccccc2[C@@]23O[C@]24CCC[C@H]3C#Cc2cc3ccccc3cc2C#C[C@H]14 (relative stereo) [Compound 80], the IC50 (cancer cell lines; [2]) is reported as 1.6 µM, the “cytotoxicity (qualitative)” value (cancer cell lines) is reported as “potent anticancer activity against a variety of cell lines” and the DNA cleavage (φX174 Form I DNA; basic conditions, pH 9.0) is reported as “exhibited DNA cleaving properties”.

Work on O=C(Oc1ccccc1)N1c2ccccc2[C@@]23O[C@]24CCC[C@@]3(O)C#Cc2cc3ccccc3cc2C#C[C@H]14 (relative stereo) [Compound 85] yielded an IC50 (cancer cell lines; [2]) of 20 µM.

For O=C(OCCSc1ccccc1)N1c2ccccc2[C@@]23O[C@]24CCC[C@H]3C#Cc2cc3ccccc3cc2C#C[C@H]14 (relative stereo) [Compound 88], the IC50 (cancer cell lines; [2]) was 50 µM.

In the case of CC(=O)O[C@]12C#C/C=C\C#C[C@@H]3N(C(=O)Oc4ccccc4)c4cc(O)ccc4[C@]14O[C@@]34CCC2 (relative stereo) [Compound 171], the DNA cleavage (φX174 Form I DNA; pH 8.5, 24 or 48 hours, 37° C.) is reported as “strong activity”.

For COC(=O)COC12C#C/C=C\C#CC3N(C(=O)Oc4ccccc4)c4ccccc4C14OC34CCC2 (stereo not shown) [Compound 24b], the IC50 (cancer cell lines; [2]) was 5 µM.

For C1#CC2Nc3ccccc3C34OC23CCCC4C#C/C=C\1 (stereo not shown) [Compound 40], the DNA cleavage (φX174 Form I DNA; 5 mM, pH 8.0, 24 hours) was “significant DNA cleavage”, the DNA cleavage (φX174 Form I DNA; pH 7.4 phosphate, 20 volume percent THF, 24 hours, 100-5000 μM) was “cleavage” and the chemical stability (Chemical stability) was “too labile for isolation; also recorded: decomposed at that temperature”.

For COc1ccc2c(c1)C13OC14CCCC3C#C/C=C\C#CC4N2C(=O)OCCS(=O)(=O)c1ccccc1 (stereo not shown) [Compound 41b], the IC50 (cancer cell lines; [2]) was 0.25 µM and the “potency against Molt-4 relative to the other cell lines” value [1] was 10,000 times.

In the case of COc1ccc2c(c1)C13OC14CCCC3C#C/C=C\C#CC4N2C(=O)OCCS(=O)(=O)c1cccc2ccccc12 (stereo not shown) [Compound 41c], the IC50 (cancer cell lines; [2]) is reported as 0.2 µM and the “potency against Molt-4 relative to the other cell lines” value [1] is reported as 10,000 times.

With COc1ccc2c(c1)C13OC14CCCC3C#C/C=C\C#CC4N2C(=O)OCCS(=O)(=O)c1ccc2ccccc2c1 (stereo not shown) [Compound 41d] the IC50 (cancer cell lines; [2]) was 0.13 µM and the “potency against Molt-4 relative to the other cell lines” value [1] was 10,000 times.

With O=C(Oc1ccccc1)N1c2cc(O)ccc2C23OC24CCCC3(O)C#C/C=C\C#CC14 (stereo not shown) [Compound 42] the “cleavage of double stranded DNA” value (φX174 Form I DNA; 2 mM) was “shown to cause cleavage of double stranded DNA”, the DNA cleavage (φX174 Form I DNA; 5 mM, pH 8.0, 24 hours) was “significant DNA cleavage” and the DNA cleavage (φX174 Form I DNA; [3]) was “significant DNA cleaving action”. The chemical stability (Chemical stability) was “led to decomposition”.

In the case of O=C(Oc1ccccc1)N1c2cc(OCc3ccccc3[N+](=O)[O-])ccc2C23OC24CCCC3(O)C#C/C=C\C#CC14 (stereo not shown) [Compound 43], the DNA cleavage (φX174 Form I DNA; [3]) is reported as “inert” and the chemical stability (Chemical stability) is reported as “rather labile”.

With COC12C#C/C=C\C#CC3N(C(=O)OCCS(=O)(=O)c4ccccc4)c4ccccc4C14OC34CCC2 (stereo not shown) [Compound 47] the IC50 (cancer cell lines; [2]) was 5 µM and the DNA cleavage (φX174 Form I DNA; 5 mM, pH 8.0, 24 hours) was “diminished activity against DNA”.

In the case of COC12C#C/C=C\C#CC3Nc4ccccc4C14OC34CCC2 (stereo not shown) [Compound 48], the chemical stability (Chemical stability) is reported as “quite stable under basic or neutral conditions”.

With O=C1C=CC23OC24C2(O)C#C/C=C\C#CC(N(C(=O)Oc5ccccc5)C3=C1)C4(O)CCC2 (stereo not shown) [Compound 54] the DNA cleaving activity (φX174 Form I DNA) was “exhibited DNA cleaving activity”, the DNA cleavage (φX174 Form I DNA; 5 mM, pH 8.0, 24 hours) was “significant DNA cleavage” and the DNA cleavage (φX174 Form I DNA; [3]) was “exhibited DNA cleaving capability”. For the same molecule, the chemical stability (Chemical stability) was “sensitive but stable molecule under neutral conditions”.

In the case of COC12C#C/C=C\C#CC3N(C(=O)Oc4ccccc4)c4cc(O)ccc4C14OC34CCC2 (stereo not shown) [Compound 55], the DNA cleavage (φX174 Form I DNA; 5 mM, pH 8.0, 24 hours) is reported as “diminished activity against DNA”.

With CC(C)(C)C(=O)Oc1ccc2c(c1)N(C(=O)Oc1ccccc1)C1C#C/C=C\C#CC3(O)CCCC14OC234 (stereo not shown) [Compound 59a] the IC50 (cancer cell lines; [2]) was 0.79 µM, the DNA cleavage (φX174 Form I DNA; [3]) was “inert” and the IC50 ([1]; Homo sapiens, MOLT-4, Molt-4 leukemia cell line) was 98 nM.

With CC(C)(C)C(=O)Oc1ccc2c(c1)N(C(=O)Oc1ccccc1)C1C#C/C=C\C#CC3CCCC14OC234 (stereo not shown) [Compound 59b] the IC50 (cancer cell lines; [2]) was 0.2 µM, the DNA cleavage (φX174 Form I DNA; [3]) was “inert” and the “potency against Molt-4 relative to the other cell lines” value [1] was 10,000 times.

O=C(Oc1ccccc1)N1c2ccccc2C23OC24CCCC3C#Cc2ccccc2C#CC14 (stereo not shown) [Compound 76] showed an IC50 (cancer cell lines; [2]) of 7.9 µM.

In the case of C1#CC2Nc3ccccc3C34OC23CCCC4C#Cc2ccccc21 (stereo not shown) [Compound 76a], the chemical stability (Chemical stability) is reported as “stable at 25 °C”.

With O=C(Oc1ccccc1)N1c2ccccc2C23OC24CCCC3C#Cc2cc3ccccc3cc2C#CC14 (stereo not shown) [Compound 87] the IC50 (cancer cell lines; [2]) was 3.2 µM.

In the case of C1#CC2Nc3ccccc3C34OC23CCCC4C#Cc2cc3ccccc3cc21 (stereo not shown) [Compound 87a], the chemical stability (Chemical stability) is reported as “stable at 25 °C”.

In the case of O=C(OCCS(=O)(=O)c1ccccc1)N1c2ccccc2C23OC24CCCC3(OCCO)C#C/C=C\C#CC14 (stereo not shown) [Compound 120], the IC50 (cancer cell lines; [2]) is reported as 40 µM.

With CCNC1COC(OC2C(OCCOC34C#CC=CC#CC5N(C(=O)OCCS(=O)(=O)c6ccccc6)c6ccccc6C36OC56CCC4)OC(C)C(=NOC3CC(O)C(SC(=O)c4c(C)c(I)c(OC5OC(C)C(O)C(OC)C5O)c(OC)c4OC)C(C)O3)C2O)CC1OC (stereo not shown) [Compound 126a] the IC50 (cancer cell lines; [2]) was 44 µM.

CCNC1COC(OC2C(OCCOC34C#CC=CC#CC5N(C(=O)OCCS(=O)(=O)c6ccccc6)c6ccccc6C36OC56CCC4)OC(C)C(=NOC3CC(O)C(SC(=O)c4c(C)c(I)c(OC5OC(C)C(O)C(OC)C5O)c(OC)c4OC)C(C)O3)C2O)CC1OC (stereo not shown) [Compound 126b] showed an IC50 (cancer cell lines; [2]) of 8.7 µM.

With CCNC1COC(OC2C(OCCOC34C#CC=CC#CC5N(C(=O)OCCS(=O)(=O)c6ccccc6)c6ccccc6C36OC56CCC4)OC(C)C(NOC3CC(O)C(SC(=O)c4c(C)c(I)c(OC5OC(C)C(O)C(OC)C5O)c(OC)c4OC)C(C)O3)C2O)CC1OC (stereo not shown) [Compound 127a] the IC50 (cancer cell lines; [2]) was 0.14 µM, the “cytotoxicity (qualitative)” value (cancer cell lines) was “particularly effective” and the IC50 ([1]; Molt-4 leukemia cell line) was 1 nM. The “potency against Molt-4 relative to the other cell lines” value [1] was “about 100 times”.

In the case of CCNC1COC(OC2C(OCCOC34C#CC=CC#CC5N(C(=O)OCCS(=O)(=O)c6ccccc6)c6ccccc6C36OC56CCC4)OC(C)C(NOC3CC(O)C(SC(=O)c4c(C)c(I)c(OC5OC(C)C(O)C(OC)C5O)c(OC)c4OC)C(C)O3)C2O)CC1OC (stereo not shown) [Compound 127b], the IC50 (cancer cell lines; [2]) is reported as 7.6 µM, the “cytotoxicity (qualitative)” value (cancer cell lines) is reported as “particularly effective” and the IC50 ([1]; Molt-4 leukemia cell line) is reported as 0.1 nM.

With CC(=O)OC12C#C/C=C\C#CC3N(C(=O)Oc4ccccc4)c4cc(O)ccc4C14OC34CCC2 (stereo not shown) [Compound 201] the DNA cleavage (φX174 Form I DNA; [3]) was “significant DNA cleaving action”.

In the case of CC(=O)Oc1ccc2c(c1)N(C(=O)Oc1ccccc1)C1C#C/C=C\C#CC3(OC(C)=O)CCCC14OC234 (stereo not shown) [Compound 202], the DNA cleavage (φX174 Form I DNA; [3]) is reported as “inert”.

COc1cccc2c1C(=O)c1c(O)c3c(c(O)c1C2=O)C[C@@](O)(C(=O)CO)C[C@@H]3O[C@H]1C[C@H](N)[C@H](O)[C@H](C)O1 [Doxorubicin, reference compound] showed an IC50 (cancer cell lines; cancer cells, control drugs, read-out: Range of Average IC50 Values, Cancer Cells) of 0.00016 to 0.098 µM.

With C=CS(=O)(=O)c1ccccc1 [phenyl vinyl sulfone, reference compound] the DNA cleavage (φX174 Form I DNA; 1.0 mM) was “no DNA cleavage” and the DNA cleavage (φX174 Form I DNA; 5.0 mM, pH 8.5 and 9.0, 48 hours, 37° C.) was “Form II DNA”.
